According to patent publication US20080146593A1, “Substituted 5-Phenyl Pyrimidines I In Therapy” (Basf Aktiengesellschaft, priority 2005, published 2008):

tested on: HeLa cells; assay: Measurement of the cell cycle inhibition in HeLa cells; type: cell-based; conditions: HeLa B cells, 20 h incubation with compound; FACS ratio G0/G1 to G2/M vs DMSO; concentration at which 50% of cells are in cell cycle arrest
Experimental: Measurement of the Cell Cycle Inhibition in HeLa Cells—Test Procedure:
HeLa B cells are grown in DMEM (Life Technologies Cat No 21969-035) supplemented with 10% Fetal Calf Serum (FCS, Life Technologies Cat No 10270-106) in 180 cm^2 Flasks at 37° C., 92% humidity and 7% CO2.
Cells are seeded at 5×10^4 cells per well in a 24-well plate. Twenty hours later the compounds are added such that the final concentration is 1×10^−6, 3.3×10^−7, 1.1×10^−7, 3.7×10^−8, 1.2×10^−8 and 1×10^−9 M in a final volume of 500 μl. DMSO alone is added to 6 wells as a control. Cells are incubated with the compounds as above for 20 h. Then cells are observed under the microscope to check for cell death, and the 24-well plate is then centrifuged at 1200 rpm for 5 min at 20° C., acceleration position 7 and break position 5 (Eppendorf centrifuge 5804R).
The supernatant is removed and the cells lysed with 0.5 ml RNase Buffer (10 mM NaCitrate, 0.1% Nonidet NP40, 50 μg/ml RNase, 10 μg/ml Propidium iodide) per well. The plates are then incubated for at least 30 min in the dark at RT and the samples then transferred to FACS tubes. Samples are measured in a FACS machine (Beckton Dickinson) at the following settings:
Instrument Settings of the FACS Calibur:
The ratio of cells in G0/G1-phase to G2/M phase is calculated and compared to the value for the controls (DMSO) only. Results are given in table 2 as the IC50 value calculated from the concentration curve plotted against the cell cycle ratio and indicate the compound concentration at which 50% of cells are in cell cycle arrest after treatment with the compound.

`COc1c(C)cnn1-c1nc(Cl)c(-c2c(F)cc(F)cc2F)c(N[C@@H](C)C(F)(F)F)n1` [Example 154] and `Cc1cnn(-c2nc(Cl)c(-c3c(F)cc(F)cc3F)c(N[C@@H](C)C(F)(F)F)n2)c1Cl` [Example 155] are within 1.5-fold of each other in IC50: 26 nM for the first, 22 nM for the second.

`Cc1nc(-n2ccnn2)nc(N2CCC(C)CC2)c1-c1c(F)cc(F)cc1F` [Example 90] and `COc1cc(F)c(-c2c(Cl)nc(-n3ccnn3)nc2N2CCC(C)CC2)c(F)c1` [Example 69] are within 1.5-fold of each other in IC50: 27 nM for the first, 21 nM for the second.

Compared with `Fc1cc(F)c(-c2c(Cl)nc(-c3nccs3)nc2NC2CCCC2)c(F)c1` [Example 40], `Cc1nc(-c2nc(Cl)c(-c3c(F)cc(F)cc3F)c(NC3CCCC3)n2)cs1` [Example 72] is 2-fold higher in IC50: 23 nM for the first, 46 nM for the second.

`COc1ccc(-c2c(Cl)nc(C(N)=O)nc2N[C@@H](C)C(F)(F)F)c(Cl)c1` [Example 217] and `C[C@H](Nc1nc(C(N)=NO)nc(Cl)c1-c1ccc(F)cc1Cl)C(F)(F)F` [Example 172] are within 1.5-fold of each other in IC50: 23 nM for the first, 21 nM for the second.

`COc1cc(F)c(-c2c(Cl)nc(C(N)=NO)nc2N[C@@H](C)C(C)C)c(F)c1` [Example 191] and `CON=C(N)c1nc(Cl)c(-c2c(F)cc(OC)cc2F)c(N[C@@H](C)C(C)C)n1` [Example 198] are within 1.5-fold of each other in IC50: 12 nM for the first, 15 nM for the second.

First: COc1cc(F)c(-c2c(Cl)nc(C(N)=O)nc2N2CCC(C)CC2)c(F)c1 [Example 188]
Second: CC1CCN(c2nc(C(N)=O)nc(Cl)c2-c2c(F)cccc2F)CC1 [Example 179]
The IC50 of the first is 1.8-fold lower: 30 nM for the first, 53 nM for the second.

Going from `C[C@H](Nc1nc(-n2ccnn2)nc(Cl)c1-c1c(F)cc(F)cc1F)C(F)(F)F` [Example 205] to `Fc1cc(F)c(-c2c(Cl)nc(-n3ccnn3)nc2NCC(F)(F)F)c(F)c1` [Example 212], the IC50 rises from 8.3 nM to 53 nM (6.4-fold). The first is the more potent here.

Compared with `C[C@H](Nc1nc(-n2ccc(-c3ccccc3)n2)nc(Cl)c1-c1c(F)cc(F)cc1F)C(F)(F)F` [Example 4], `C[C@H](Nc1nc(-n2ccc(Br)n2)nc(Cl)c1-c1c(F)cc(F)cc1F)C(F)(F)F` [Example 38] is 1.7-fold lower in IC50: 41 nM for the first, 24 nM for the second. The second is the more potent here.

Going from `CC1CCN(c2nc(-n3cncn3)nc(Cl)c2-c2c(F)cccc2F)CC1` [Example 116] to `CC1CCN(c2nc(-n3cncn3)nc(Cl)c2-c2c(F)cccc2Cl)CC1` [Example 47], the IC50 falls from 42 nM to 26 nM (1.6-fold). The second is the more potent here.

Compared with `CCC(C)Nc1nc(-n2ccnn2)nc(Cl)c1-c1c(F)cccc1Cl` (stereo not drawn) [Example 107], `CC(C)[C@@H](C)Nc1nc(-n2ccnn2)nc(Cl)c1-c1c(F)cccc1Cl` [Example 50] is 4.3-fold lower in IC50: 39 nM for the first, 9.1 nM for the second.

`Cc1nc(C(N)=NO)nc(N[C@@H](C)C(F)(F)F)c1-c1c(F)cc(F)cc1F` [Example 171] and `CCON=C(N)c1nc(Cl)c(-c2c(F)cc(F)cc2F)c(N[C@H](C)C(F)(F)F)n1` [Example 158] are within 1.5-fold of each other in IC50: 54 nM for the first, 44 nM for the second.

`COc1cc(F)c(-c2c(Cl)nc(-c3ccccn3)nc2N[C@@H](C)C(C)C)c(F)c1` [Example 65] and `CC(C)C(C)Nc1nc(-c2ccccn2)nc(Cl)c1-c1c(F)cccc1F` (stereo not drawn) [Example 84] are within 1.5-fold of each other in IC50: 20 nM for the first, 27 nM for the second.

`Cc1nc(-n2ccnn2)nc(N2CCC(C)CC2)c1-c1c(F)cccc1Cl` [Example 166] and `CC1CCN(c2nc(-n3ccnn3)nc(Cl)c2-c2ccc(F)cc2Cl)CC1` [Example 119] are within 1.5-fold of each other in IC50: 42 nM for the first, 48 nM for the second.

`CC(C)Nc1nc(-n2ccc(C(C)C)n2)nc(Cl)c1-c1c(F)cc(F)cc1F` [Example 22] and `Cc1cc(C)n(-c2nc(Cl)c(-c3c(F)cc(F)cc3F)c(NC(C)C)n2)n1` [Example 21] are within 1.5-fold of each other in IC50: 32 nM for the first, 25 nM for the second.

`CC1CCN(c2nc(-c3nccs3)nc(Cl)c2-c2c(F)cc(F)cc2F)CC1` [Example 39] and `CC1CCN(c2nc(-c3cccnn3)nc(Cl)c2-c2c(F)cc(F)cc2F)CC1` [Example 79] are within 1.5-fold of each other in IC50: 26 nM for the first, 21 nM for the second.

`Cc1nc(C)n(-c2nc(Cl)c(-c3c(F)cc(F)cc3F)c(N3CC=CCC3)n2)n1` [Example 59] and `Fc1cc(F)c(-c2c(Cl)nc(-n3cccn3)nc2N2CC=CCC2)c(F)c1` [Example 41] are within 1.5-fold of each other in IC50: 43 nM for the first, 38 nM for the second.

First: COc1cc(F)c(-c2c(Cl)nc(-c3ccccn3)nc2NC2CCCC2)c(F)c1 [Example 64]
Second: Cc1ccnc(-c2nc(Cl)c(-c3c(F)cc(F)cc3F)c(NC(C)C)n2)c1 [Example 15]
The IC50 of the first is 2-fold lower: 21 nM for the first, 43 nM for the second.

First: C[C@H](Nc1nc(N(C)N)nc(Cl)c1-c1c(F)cc(F)cc1F)C(F)(F)F [Example 9]
Second: C[C@H](Nc1nc(C(N)=NOC(F)F)nc(Cl)c1-c1c(F)cc(F)cc1F)C(F)(F)F [Example 177]
The IC50 of the first is 1.6-fold lower: 13 nM for the first, 21 nM for the second.

Going from `CON=C(N)c1nc(Cl)c(-c2c(F)cc(OC)cc2F)c(N[C@@H](C)C(F)(F)F)n1` [Example 182] to `COc1cc(F)c(-c2c(Cl)nc(C(N)=S)nc2N[C@@H](C)C(F)(F)F)c(F)c1` [Example 203], the IC50 rises from 11 nM to 47 nM (4.3-fold).

`CC(C)Nc1nc(-n2nccc2[N+](=O)[O-])nc(Cl)c1-c1c(F)cc(F)cc1F` [Example 23] and `Cc1cccc(-c2nc(Cl)c(-c3c(F)cc(F)cc3F)c(NC(C)C)n2)n1` [Example 11] are within 1.5-fold of each other in IC50: 39 nM for the first, 42 nM for the second.

`CCC(C)Nc1nc(-n2ccc(N)n2)nc(Cl)c1-c1c(C)cccc1F` (stereo not drawn) [Example 143] and `CCC(C)Nc1nc(-n2cccn2)nc(Cl)c1-c1c(C)cccc1F` (stereo not drawn) [Example 109] are within 1.5-fold of each other in IC50: 32 nM for the first, 25 nM for the second.

Compared with `Fc1cc(F)c(-c2c(Cl)nc(-n3ccnn3)nc2N2CCCCC2)c(F)c1` [Example 56], `Fc1cc(F)c(-c2c(Cl)nc(-n3cc(Br)cn3)nc2N2CCCCC2)c(F)c1` [Example 53] is 2.4-fold higher in IC50: 11 nM for the first, 26 nM for the second. The first is the more potent here.

First: CON=C(N)c1nc(Cl)c(-c2c(F)cccc2F)c(N[C@@H](C)C(C)C)n1 [Example 196]
Second: CC(C)[C@H](C)Nc1nc(C(N)=NO)nc(Cl)c1-c1c(F)cc(F)cc1F [Example 145]
The IC50 of the first is 1.7-fold higher: 38 nM for the first, 23 nM for the second. The second is the more potent here.

`C=CCCN(C)c1nc(-n2cc(C)cn2)nc(Cl)c1-c1ccc(F)cc1Cl` [Example 133] and `Cc1ccc(-c2c(Cl)nc(-n3cc(Cl)cn3)nc2NCC(F)(F)F)c(F)c1` [Example 150] are within 1.5-fold of each other in IC50: 41 nM for the first, 50 nM for the second.

Going from `C[C@H](Nc1nc(C(N)=O)nc(Cl)c1-c1c(F)cccc1F)C(F)(F)F` [Example 180] to `C[C@H](Nc1nc(-n2ccc(C(F)(F)F)n2)nc(Cl)c1-c1c(F)cc(F)cc1F)C(F)(F)F` [Example 6], the IC50 falls from 41 nM to 17 nM (2.4-fold). The second is the more potent here.

Going from `CC(C)[C@H](C)Nc1nc(C(N)=NO)nc(Cl)c1-c1ccc(F)cc1Cl` [Example 193] to `CON=C(N)c1nc(Cl)c(-c2ccc([N+](=O)[O-])cc2Cl)c(N[C@@H](C)C(C)C)n1` [Example 219], the IC50 rises from 9 nM to 29 nM (3.2-fold). The first is the more potent here.

`CC(C)C(C)Nc1nc(-c2cccnn2)nc(Cl)c1-c1c(F)cc(F)cc1F` (stereo not drawn) [Example 80] and `CCC(C)Nc1nc(-n2ccnn2)nc(Cl)c1-c1c(F)cc(F)cc1F` (stereo not drawn) [Example 91] are within 1.5-fold of each other in IC50: 26 nM for the first, 20 nM for the second.

Compared with `Cc1ccc(-c2c(Cl)nc(-n3ccc(N)n3)nc2NCC(F)(F)F)c(F)c1` [Example 149], `CC1CCCN1c1nc(-n2cccn2)nc(Cl)c1-c1c(F)cc(F)cc1F` (stereo not drawn) [Example 74] is 3.2-fold lower in IC50: 41 nM for the first, 13 nM for the second. The second is the more potent here.

Going from `C[C@H](Nc1nc(-n2nccn2)nc(Br)c1-c1c(F)cc(F)cc1F)C(F)(F)F` [Example 165] to `CC1CCCN(c2nc(-n3cccn3)nc(Cl)c2-c2c(F)cc(F)cc2F)C1` (stereo not drawn) [Example 43], the IC50 falls from 30 nM to 19 nM (1.6-fold). The second is the more potent here.

First: CC1CCCCN1c1nc(-n2ccnn2)nc(Cl)c1-c1c(F)cccc1F (stereo not drawn) [Example 126]
Second: CC1CCN(c2nc(-n3cccn3)nc(Cl)c2-c2c(F)cccc2F)CC1 [Example 115]
The IC50 of the first is 1.7-fold higher: 38 nM for the first, 23 nM for the second.
